Legend:
[1] = target: Sodium-dependent dopamine transporter (Homo sapiens, UniProt Q01959); assay: Inhibition of dopamine uptake at human DAT expressed in HEK293 cells; assay type: cell-based
[2] = target: Sodium-dependent serotonin transporter (Homo sapiens, UniProt P31645)
Description: Inhibition of serotonin uptake at human SERT expressed in HEK293 cells

[3] = target: Sodium-dependent noradrenaline transporter (Homo sapiens, UniProt P23975); assay: Inhibition of norepinephrine uptake at human NET expressed in HEK293 cells; assay type: cell-based
[4] = Metabolic stability in human liver microsomes assessed as systemic clearance; assay type: ADME, Microsome
[5] = Apparent permeability across human Caco-2 cells; assay type: ADME, cell-based
[6] = Metabolic stability in rat liver microsomes assessed as systemic clearance; assay type: ADME, Microsome
[7] = Cmax in rat at 10 mg/kg, po; assay type: ADME, organism-based; set-up: dose 10 mg/kg, route oral; settings: in vivo
[8] = Tmax in rat at 10 mg/kg, po; assay type: ADME, organism-based; set-up: dose 10 mg/kg, route oral; settings: in vivo
[9] = Drug level in rat brain at 10 mg/kg, po at 1 hr; assay type: ADME, organism-based; set-up: dose 10 mg/kg, route oral; settings: read-out: Drug uptake
[10] = Ratio of drug level in brain to plasma in rat at 10 mg/kg, po after 4 hrs
[11] = AUC in rat at 10 mg/kg, po; assay type: ADME, organism-based; set-up: dose 10 mg/kg, route oral; settings: plasma
[12] = Dissociation constant, pKa of the compound; assay type: physicochemical
[13] = Ratio of drug level in brain to plasma in rat at 10 mg/kg, po after 1 hr
[14] = Drug level in rat brain at 10 mg/kg, po at 4 hrs; assay type: ADME, organism-based; set-up: dose 10 mg/kg, route oral; settings: read-out: Drug uptake
[15] = Tmax in rat at 30 mg/kg, po; assay type: ADME, organism-based; set-up: dose 30 mg/kg, route oral; settings: in vivo
[16] = AUC in rat at 30 mg/kg, po; assay type: ADME, organism-based; set-up: dose 30 mg/kg, route oral; settings: plasma
[17] = Cmax in rat at 30 mg/kg, po; assay type: ADME, organism-based; set-up: dose 30 mg/kg, route oral; settings: in vivo
[18] = Ratio of drug level in brain to plasma in rat at 30 mg/kg, po after 4 hrs; assay type: ADME, organism-based; set-up: dose 30 mg/kg, route oral
[19] = Distribution coefficient, log D of the compound; assay type: physicochemical; settings: octanol/water
[20] = Lipophilicity, log P of the compound; assay type: physicochemical; settings: octanol/water
[21] = Drug level in rat brain at 30 mg/kg, po at 4 hrs; assay type: ADME, organism-based; set-up: dose 30 mg/kg, route oral; settings: read-out: Drug uptake
[22] = Ratio of drug level in brain to plasma in rat at 30 mg/kg, po after 1 hr; assay type: ADME, organism-based; set-up: dose 30 mg/kg, route oral
[23] = Drug level in rat brain at 30 mg/kg, po at 1 hr; assay type: ADME, organism-based; set-up: dose 30 mg/kg, route oral; settings: read-out: Drug uptake

Chain of Sodium-dependent noradrenaline transporter (P23975 whole entry): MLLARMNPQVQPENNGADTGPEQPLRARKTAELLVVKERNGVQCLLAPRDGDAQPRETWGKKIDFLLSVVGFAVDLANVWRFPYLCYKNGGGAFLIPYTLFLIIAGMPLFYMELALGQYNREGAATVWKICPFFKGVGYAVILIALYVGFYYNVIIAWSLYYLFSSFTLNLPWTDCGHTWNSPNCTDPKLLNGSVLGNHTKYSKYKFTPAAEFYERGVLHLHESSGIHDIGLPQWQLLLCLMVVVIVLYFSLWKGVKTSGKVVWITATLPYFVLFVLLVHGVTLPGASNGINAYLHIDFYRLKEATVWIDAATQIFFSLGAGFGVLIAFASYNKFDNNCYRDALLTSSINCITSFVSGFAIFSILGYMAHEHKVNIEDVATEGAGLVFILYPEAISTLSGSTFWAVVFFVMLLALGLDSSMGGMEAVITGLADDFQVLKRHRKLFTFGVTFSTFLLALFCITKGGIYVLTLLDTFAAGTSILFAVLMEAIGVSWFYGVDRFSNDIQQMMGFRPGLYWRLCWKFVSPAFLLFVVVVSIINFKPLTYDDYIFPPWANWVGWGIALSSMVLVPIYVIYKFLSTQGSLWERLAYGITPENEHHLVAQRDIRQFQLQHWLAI
Chain of Sodium-dependent dopamine transporter (Q01959 whole entry): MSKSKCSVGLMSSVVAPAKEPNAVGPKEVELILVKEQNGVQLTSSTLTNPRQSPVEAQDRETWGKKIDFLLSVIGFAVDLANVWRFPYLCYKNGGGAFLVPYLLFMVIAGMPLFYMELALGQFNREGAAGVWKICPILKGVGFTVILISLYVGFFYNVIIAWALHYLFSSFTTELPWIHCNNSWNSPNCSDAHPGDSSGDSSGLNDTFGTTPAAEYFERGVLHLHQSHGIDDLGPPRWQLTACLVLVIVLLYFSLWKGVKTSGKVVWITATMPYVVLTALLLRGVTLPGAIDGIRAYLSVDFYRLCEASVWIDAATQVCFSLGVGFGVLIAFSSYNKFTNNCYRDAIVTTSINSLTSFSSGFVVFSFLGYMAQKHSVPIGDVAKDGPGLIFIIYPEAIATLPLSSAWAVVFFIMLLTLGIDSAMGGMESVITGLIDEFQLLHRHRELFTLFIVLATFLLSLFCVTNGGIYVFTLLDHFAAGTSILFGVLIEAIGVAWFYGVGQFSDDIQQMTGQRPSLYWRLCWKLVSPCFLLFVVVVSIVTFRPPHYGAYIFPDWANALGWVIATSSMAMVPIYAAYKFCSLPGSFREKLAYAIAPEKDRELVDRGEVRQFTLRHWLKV
Chain of Sodium-dependent serotonin transporter (P31645 whole entry): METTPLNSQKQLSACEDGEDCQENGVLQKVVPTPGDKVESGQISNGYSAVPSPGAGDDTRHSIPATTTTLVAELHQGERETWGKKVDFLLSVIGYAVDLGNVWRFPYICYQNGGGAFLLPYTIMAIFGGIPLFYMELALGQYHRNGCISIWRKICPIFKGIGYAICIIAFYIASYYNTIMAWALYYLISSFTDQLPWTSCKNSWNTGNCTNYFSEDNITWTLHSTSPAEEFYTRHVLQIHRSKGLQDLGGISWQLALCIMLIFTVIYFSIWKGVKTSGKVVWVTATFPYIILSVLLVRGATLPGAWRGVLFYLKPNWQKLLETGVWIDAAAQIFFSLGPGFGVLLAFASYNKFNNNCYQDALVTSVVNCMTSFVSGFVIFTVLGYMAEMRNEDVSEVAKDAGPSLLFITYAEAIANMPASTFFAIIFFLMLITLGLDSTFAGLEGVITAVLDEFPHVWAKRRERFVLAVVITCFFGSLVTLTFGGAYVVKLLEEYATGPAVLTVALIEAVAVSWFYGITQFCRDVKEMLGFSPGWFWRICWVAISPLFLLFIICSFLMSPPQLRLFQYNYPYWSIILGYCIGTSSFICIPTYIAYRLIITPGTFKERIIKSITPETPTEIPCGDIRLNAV

Row | SMILES | IC50 [1] [nM] | IC50 [2] [nM] | IC50 [3] [nM] | CLhep predicted [4] [mL/min/kg] | Papp [5] [×10⁻⁶ cm/s] | CLhep predicted [6] [mL/min/kg] | further results
1 | NC[C@@H]1C[C@@]1(C(=O)N1C=CCCC1)c1ccsc1 | > 10000 | 1800 | 200 | – | – | – | –
2 | CCN(CC)C(=O)[C@@]1(c2ccccc2)C[C@H]1CN [LEVOMILNACIPRAN] | – | – | – | – | – | 24 | Cmax [7]: 232 ng/mL; Tmax [8]: 18 min; concentration at 1 h [9]: 103 ng/g; Kp at 4 h [10]: 0.86; AUC [11]: 566 ng·h/mL; pKa [12]: 9.6; Kp at 1 h [13]: 0.42; concentration at 4 h [14]: 55 ng/g
3 | CCN(CC)C(=O)[C@@]1(c2ccc(Br)s2)C[C@H]1CN | 6300 | 350 | 29 | – | – | – | –
4 | C#CCN(CCOC)C(=O)[C@@]1(c2ccsc2)C[C@H]1CN | > 10000 | 47 | 64 | < 2.6 | 3.2 | 18 | –
5 | C=C(F)CN(CCOC)C(=O)[C@@]1(c2ccsc2)C[C@H]1CN | > 10000 | 40 | 3.9 | < 2.6 | 3.4 | 54 | –
6 | CCN(CC)C(=O)[C@]1(c2ccccc2)C[C@@H]1CN | – | – | – | < 2.6 | – | 18 | –
7 | CCN(CC)C(=O)[C@@]1(c2ccc(Cl)s2)C[C@H]1CN | > 10000 | 520 | 40 | – | – | – | –
8 | CCN(CC)C(=O)[C@@]1(c2cccs2)C[C@H]1CN | > 10000 | 520 | 76 | – | – | – | –
9 | CCN(CC)C(=O)[C@@]1(c2ccccn2)C[C@H]1CN | > 10000 | 3500 | 1500 | – | – | – | –
10 | CCN(CC)C(=O)[C@@]1(c2ccsc2)C[C@H]1CN | > 10000 | 830 | 49 | 7.1 | 4.7 | 34 | –
11 | C=CCN(CC=C)C(=O)[C@@]1(c2ccsc2)C[C@H]1CN | 8300 | 76 | 2.7 | 4.7 | 9.5 | 59 | –
12 | C=CCN(C(=O)[C@@]1(c2ccsc2)C[C@H]1CN)C1CC1 | > 10000 | 26 | 8.7 | < 2.6 | 5.3 | 42 | –
13 | NC[C@@H]1C[C@@]1(C(=O)N1C=COc2ccccc21)c1ccsc1 | > 10000 | 340 | 12 | 13 | 20 | 67 | –
14 | CCN(CC)C(=O)[C@@]1(c2ccsc2)C[C@H]1CN(C)C | > 10000 | > 10000 | > 10000 | – | – | – | –
15 | C=CCN(CC)C(=O)[C@@]1(c2ccsc2)C[C@H]1CN | > 10000 | 140 | 5.6 | 6.8 | 6.4 | 57 | Tmax [15]: 30 min; AUC [16]: 502 ng·h/mL; Cmax [17]: 201 ng/mL; Kp at 4 h [18]: 0.4; logD [19]: 0.1; logP [20]: 1.5; pKa [12]: 9.5; concentration at 4 h [21]: 15 ng/g; Kp at 1 h [22]: 0.3; concentration at 1 h [23]: 39 ng/g
16 | C#CCN(CC#C)C(=O)[C@@]1(c2ccsc2)C[C@H]1CN | > 10000 | 84 | 8.2 | < 2.6 | 16.4 | 42 | –
17 | CCN(CC)C(=O)[C@@]1(c2cc3ccccc3s2)C[C@H]1CN | 2400 | 620 | 65 | – | – | – | –

Continued, in another order:

Row | IC50 [1] [nM] | IC50 [2] [nM] | IC50 [3] [nM] | CLhep predicted [4] [mL/min/kg] | Papp [5] [×10⁻⁶ cm/s] | CLhep predicted [6] [mL/min/kg] | SMILES | further results
18 | > 10000 | 290 | 150 | – | – | – | CCN(CC)C(=O)[C@@]1(c2cc3cc(F)ccc3s2)C[C@H]1CN | –
19 | > 10000 | 420 | 20 | – | – | – | NC[C@@H]1C[C@@]1(C(=O)N1CCCc2ccccc21)c1ccsc1 | –
20 | > 10000 | 320 | 8.3 | – | – | – | NC[C@@H]1C[C@@]1(C(=O)N1CCc2ccccc2C1)c1ccsc1 | –
21 | > 10000 | 4000 | 1500 | – | – | – | CCN(CC)C(=O)[C@@]1(c2cccnc2)C[C@H]1CN | –
22 | > 10000 | 3100 | 170 | – | – | – | CCN(CC)C(=O)[C@@]1(c2csc3ccccc23)C[C@H]1CN | –
23 | > 10000 | 60 | 44 | < 2.6 | 13.8 | 32 | C=C(F)CN(C)C(=O)[C@@]1(c2ccsc2)C[C@H]1CN | –
24 | > 10000 | 34 | 110 | – | – | – | C#CCN(C)C(=O)[C@@]1(c2ccsc2)C[C@H]1CN | –
25 | > 10000 | 60 | 100 | – | – | – | C=CCN(C)C(=O)[C@@]1(c2ccsc2)C[C@H]1CN | –
26 | > 10000 | 590 | 1100 | – | – | – | COCCN(C)C(=O)[C@@]1(c2ccsc2)C[C@H]1CN | –
27 | > 10000 | 2200 | 560 | – | – | – | CCN(CC)C(=O)[C@@]1(c2cc(Cl)c(Cl)s2)C[C@H]1CN | –
28 | > 10000 | 9600 | 2200 | – | – | – | CCN(CC)C(=O)[C@@]1(c2nc3ccccc3s2)C[C@H]1CN | –
29 | 6900 | – | 37 | 10 | 4.7 | 66 | NC[C@@H]1C[C@@]1(C(=O)N1Cc2ccccc2C1)c1ccsc1 | –
30 | > 10000 | 2000 | 270 | – | – | – | CCN(CC)C(=O)[C@@]1(c2sc(Cl)c(Cl)c2Cl)C[C@H]1CN | –
31 | > 10000 | 71 | 2.8 | < 2.6 | 9.6 | 44 | C#CCN(CC=C)C(=O)[C@@]1(c2ccsc2)C[C@H]1CN | –
32 | > 10000 | 47 | 20 | < 2.6 | 2.4 | 52 | C=CCN(CCOC)C(=O)[C@@]1(c2ccsc2)C[C@H]1CN | –
33 | > 10000 | – | 3700 | – | – | – | CCN(CC)C(=O)[C@@]1(c2ccsc2)C[C@H]1CNC | –
